Source: US9999222B2, “Herbicidal combination comprising azines” (BASF SE, priority 2014, dated 2018)
Several values for one entry are separate records, joined by “and”; a condition that tells them apart may be missing. Equal entries are not always repeated. Where two headings read alike, the source gives them in different places.

Assays:
Experiment in all cases: Greenhouse test, pre-emergence treatment
[1] = system: GERPU; format: in vivo, Geranium pusillum; settings: Geranium pusillum, pre-emergence, 480 h
Source text: (§1) The culture containers used were plastic flowerpots containing loamy sand with approximately 3.0% of humus as the substrate. The seeds of the test plants were sown separately for each species.
(§2) For the pre-emergence treatment, the active ingredients, which had been suspended or emulsified in water, were applied directly after sowing by means of finely distributing nozzles. The containers were irrigated gently to promote germination and growth and subsequently covered with transparent plastic hoods until the plants had rooted. This cover caused uniform germination of the test plants, unless this had been impaired by the active ingredients.
(§3) Depending on the species, the plants were kept at 10-25° C. or 20-35° C., respectively.
(§4) The test period extended over 2 to 4 weeks. During this time, the plants were tended, and their response to the individual treatments was evaluated.
(§5) Evaluation was carried out using a scale from 0 to 100. 100 means no emergence of the plants, or complete destruction of at least the aerial moieties, and 0 means no damage, or normal course of growth. A moderate herbicidal activity is given at values of at least 60, a good herbicidal activity is given at values of at least 70, and a very good herbicidal activity is given at values of at least 85.
(§6) The respective stated components a and b, and if appropriate, c were formulated as a 10% by weight strength emulsion concentrate and, with addition of the amount of solvent system, introduced into the spray liquor used for applying the active compound.
(§7) In the examples, the solvent used was water.
(§8) In the examples below, using the method of S. R. Colby (1967) “Calculating synergistic and antagonistic responses of herbicide combinations”, Weeds 15, p. 22ff., the value E, which is expected if the activity of the individual active compounds is only additive, was calculated. E=X+Y−(X·Y/100) where • X=percent activity using active compound a at an application rate A; • Y=percent activity using active compound b at an application rate B; • E=expected activity (in %) by a+b at application rates A+B.
(§9) If the value found experimentally is higher than the value E calculated according to Colby, a synergistic effect is present.

[2] = system: GALAP; format: in vivo, Galium aparine; settings: pre-emergence
Source text: as §1, §2, §3, §4, §5, §6, §7, §8, §9

[3] = system: ABUTH; format: in vivo, Abutilon theophrasti; settings: Abutilon theophrasti, 480 h
Source text: as §1, §2, §3, §4, §5, §6, §7, §8, §9

[4] = system: IPOHE; format: in vivo, Ipomoea hederacea; settings: Ipomoea hederacea, 480 h
Source text: as §1, §2, §3, §4, §5, §6, §7, §8, §9

[5] = system: CENCY; format: in vivo; settings: 480 h, individual, read-out: observed % activity 20 DAT
[6] = system: KCHSC; format: in vivo, Kochia scoparia; settings: pre-emergence
Source text: as §1, §2, §3, §4, §5, §6, §7, §8, §9

[7] = system: SIDRH; format: in vivo, Sida rhombifolia; settings: Sida rhombifolia, pre-emergence, 480 h
Source text: as §1, §2, §3, §4, §5, §6, §7, §8, §9

[8] = system: COMBE; format: in vivo, Commelina benghalensis; settings: Commelina benghalensis, pre-emergence, 480 h
Source text: as §1, §2, §3, §4, §5, §6, §7, §8, §9

[9] = system: EPHHL; format: in vivo, Euphorbia heterophylla; settings: pre-emergence
Source text: as §1, §2, §3, §4, §5, §6, §7, §8, §9

[10] = system: POLCO; format: in vivo, Polygonum convolvulus; settings: pre-emergence
Source text: as §1, §2, §3, §4, §5, §6, §7, §8, §9

[11] = system: SETFA; format: in vivo, Setaria faberi; settings: SETFA, use rate 25 g ai/ha, 20 DAT
Source text: as §1, §2, §3, §4, §5, §6, §7, §8, §9

[12] = system: ALOMY; format: in vivo, Alopecurus myosuroides; settings: Alopecurus myosuroides, pre-emergence, 480 h
Source text: as §1, §2, §3, §4, §5, §6, §7, §8, §9

[13] = system: ANTAR; format: in vivo; settings: Anthemis arvensis, 480 h, 20 DAT, read-out: observed % activity
Source text: as §1, §2, §3, §4, §5, §6, §7, §8, §9

[14] = 375 g ai/ha, 20 DAT, read-out: observed % activity
[15] = 750 g ai/ha, 20 DAT, read-out: observed % activity
[16] = 20 g ai/ha, 20 DAT, read-out: observed % activity
[17] = 40 g ai/ha, 20 DAT, read-out: observed % activity
[18] = 15 g ai/ha, read-out: observed % activity 20 DAT
[19] = 30 g ai/ha, read-out: observed % activity 20 DAT

## CC(C)c1ccc(NC(=O)N(C)C)cc1 [Isoproturon, isoproturon]
[1]; [14]
  inhibition at 375 g/ha: 20%
[1]; [15]
  inhibition at 750 g/ha: 40%
[1]; GERPU, individual, use rate 500 g ai/ha, read-out: observed % activity 20 DAT
  inhibition at 500 g/ha: 0%
[2]; GALAP, individual, use rate 500 g ai/ha
  observed % activity 20 DAT: 65% and 15%
[2]; Galium aparine, 480 h, GALAP, individual, use rate 250 g ai/ha, read-out: observed % activity 20 DAT
  inhibition at 250 g/ha: 30%
[3]; [14]
  inhibition at 375 g/ha: 20%
[3]; [15]
  inhibition at 750 g/ha: 65%
[3]; ABUTH, individual, use rate 250 g ai/ha, read-out: observed % activity 20 DAT
  inhibition at 250 g/ha: 50%
[3]; ABUTH, individual, use rate 500 g ai/ha, read-out: observed % activity 20 DAT
  inhibition at 500 g/ha: 15%
[4]; [15]
  inhibition at 750 g/ha: 40%
[5]; use rate 250 g ai/ha
  inhibition at 250 g/ha: 30%
[5]; use rate 500 g ai/ha
  inhibition at 500 g/ha: 30%
[6]; Bassia scoparia, 480 h, 750 g ai/ha, 20 DAT, read-out: observed % activity
  inhibition at 750 g/ha: 98%
[6]; Bassia scoparia, 480 h, KCHSC, individual, use rate 250 g ai/ha, read-out: observed % activity 20 DAT
  inhibition at 250 g/ha: 98%
[6]; Bassia scoparia, 480 h, KCHSC, individual, use rate 500 g ai/ha, read-out: observed % activity 20 DAT
  inhibition at 500 g/ha: 98%
[7]; [14]
  inhibition at 375 g/ha: 0%
[7]; SIDRH, individual, use rate 250 g ai/ha, read-out: observed % activity 20 DAT
  inhibition at 250 g/ha: 0%
[7]; SIDRH, individual, use rate 500 g ai/ha, read-out: observed % activity 20 DAT
  inhibition at 500 g/ha: 40%
[8]; [14]
  inhibition at 375 g/ha: 0%
[8]; [15]
  inhibition at 750 g/ha: 45%
[8]; COMBE, individual, use rate 250 g ai/ha, read-out: observed % activity 20 DAT
  inhibition at 250 g/ha: 0%
[8]; COMBE, individual, use rate 500 g ai/ha, read-out: observed % activity 20 DAT
  inhibition at 500 g/ha: 10%
[9]; EPHHL, individual, use rate 250 g ai/ha
  observed % activity 20 DAT: 10% and 25%
[9]; Euphorbia heterophylla, 480 h, EPHHL, individual, use rate 500 g ai/ha, read-out: observed % activity 20 DAT
  inhibition at 500 g/ha: 35%
[10]; Fallopia convolvulus, 480 h, 375 g ai/ha, 20 DAT, read-out: observed % activity
  inhibition at 375 g/ha: 0%
[10]; Fallopia convolvulus, 480 h, 750 g ai/ha, 20 DAT, read-out: observed % activity
  inhibition at 750 g/ha: 25%
[10]; Fallopia convolvulus, 480 h, POLCO, individual, use rate 250 g ai/ha, read-out: observed % activity 20 DAT
  inhibition at 250 g/ha: 10%

## O=C(Nc1ccc(F)cc1)c1cccc(Oc2cccc(C(F)(F)F)c2)n1 [Picolinafen, picolinafen]
[6]; KCHSC, use rate 50 g ai/ha, 20 DAT
  observed % activity 20 DAT: 30%
[10]; POLCO, use rate 25 g ai/ha, 20 DAT
  observed % activity 20 DAT: 0%
[10]; POLCO, use rate 50 g ai/ha, 20 DAT
  observed % activity 20 DAT: 0%
[11]
  observed % activity 20 DAT: 10%

## CCOCN(C(=O)CCl)c1c(C)cccc1CC [acetochlor]
[12]; 125 g ai/ha, 20 DAT, read-out: observed % activity
  inhibition at 125 g/ha: 0%
[2]; Galium aparine, 480 h, 125 g ai/ha, 20 DAT, read-out: observed % activity
  inhibition at 125 g/ha: 60%
[6]; Bassia scoparia, 480 h, 125 g ai/ha, 20 DAT, read-out: observed % activity
  inhibition at 125 g/ha: 0%

## CCc1cnc(C2=NC(C)(C(C)C)C(=O)N2)c(C(=O)O)c1 (stereo not shown) [imazethapyr]
[1]; [16]
  inhibition at 20 g/ha: 20%
[1]; [17]
  inhibition at 40 g/ha: 85%
[1]; [18]
  inhibition at 15 g/ha: 30%
[1]; [19]
  inhibition at 30 g/ha: 30%
[2]; Galium aparine, 480 h, 15 g ai/ha, read-out: observed % activity 20 DAT
  inhibition at 15 g/ha: 50%
[2]; Galium aparine, 480 h, 30 g ai/ha, read-out: observed % activity 20 DAT
  inhibition at 30 g/ha: 60%
[3]; [18]
  inhibition at 15 g/ha: 0%
[3]; [16]
  inhibition at 20 g/ha: 60%
[3]; [19]
  inhibition at 30 g/ha: 15%
[3]; [17]
  inhibition at 40 g/ha: 80%
[4]; [19]
  inhibition at 30 g/ha: 0%
[6]; Bassia scoparia, 480 h, 15 g ai/ha, read-out: observed % activity 20 DAT
  inhibition at 15 g/ha: 70%
[6]; Bassia scoparia, 480 h, 30 g ai/ha, read-out: observed % activity 20 DAT
  inhibition at 30 g/ha: 85%
[7]; [16]
  inhibition at 20 g/ha: 45%
[7]; [17]
  inhibition at 40 g/ha: 80%
[7]; [18]
  inhibition at 15 g/ha: 15%
[7]; [19]
  inhibition at 30 g/ha: 60%
[8]; [16]
  inhibition at 20 g/ha: 45%
[8]; [17]
  inhibition at 40 g/ha: 65%
[8]; [18]
  inhibition at 15 g/ha: 0%
[8]; [19]
  inhibition at 30 g/ha: 35%
[9]; Euphorbia heterophylla, 480 h, 30 g ai/ha, read-out: observed % activity 20 DAT
  inhibition at 30 g/ha: 65%
[10]; Fallopia convolvulus, 480 h, 20 g ai/ha, 20 DAT, read-out: observed % activity
  inhibition at 20 g/ha: 35%
[10]; Fallopia convolvulus, 480 h, 40 g ai/ha, 20 DAT, read-out: observed % activity
  inhibition at 40 g/ha: 90%
[10]; Fallopia convolvulus, 480 h, 15 g ai/ha, read-out: observed % activity 20 DAT
  inhibition at 15 g/ha: 30%
[10]; Fallopia convolvulus, 480 h, 30 g ai/ha, read-out: observed % activity 20 DAT
  inhibition at 30 g/ha: 65%
[10]; 30 g ai/ha
  observed % activity 20 DAT: 60%
[13]; 20 g ai/ha
  inhibition at 20 g/ha: 30%
[13]; 40 g ai/ha
  inhibition at 40 g/ha: 30%

## O=C(O)CNCP(=O)(O)O [Glyphosate, glyphosate]
[12]; read-out: observed % activity 20 DAT
  inhibition at 125 g/ha: 0%
